Assay results published in patent US20050004211A1, “Pharmaceutical compositions comprising aryl-substituted acyclic enediyne compounds” (KAOHSIUNG MEDICAL UNIVERSITY, priority 2003, published 2005).
In brackets after ≈: the same amount, converted by molar mass. Like-named read-outs stand apart in the source and are kept apart here.

Experiments:
[1] = tested on: Hela: human cervix epitheloid carcinoma; assay: In vitro anticancer assay (cytotoxicity), human solid tumor cells; details: for IC50: Homo sapiens, HeLa, read-out: IC50 Values of Cytotoxicities, Hela
Hep2,2,15 = details: read-out: Cytotoxicities (IC50), Hep2,2,15, earlier research work; cited from earlier work
Hepa: human hepatoma [2] = assay: In vitro anticancer assay (cytotoxicity), human solid tumor cells; details: for IC50: Homo sapiens, HepA, read-out: IC50 Values of Cytotoxicities, Hepa
KB = details: read-out: Cytotoxicities (IC50), KB; KB cell; earlier research work; cited from earlier work
[3] = tested on: NCI (NCI-H661): human lung large cell carcinoma; assay: In vitro anticancer assay (cytotoxicity), human solid tumor cells; details: for IC50 Values of Cytotoxicities, NCI: NCI (NCI-H661); for IC50: Homo sapiens, NCI-H661, read-out: IC50 Values of Cytotoxicities, NCI
[4] = tested on: DLD (DLD-1): human colon adenocarcinoma; assay: as above; details: for IC50: Homo sapiens, DLD-1, read-out: IC50 Values of Cytotoxicities, DLD
[5] = tested on: human hepatoma Hep G2 cells; assay: Cell cycle analysis by flow cytometry; type: cell-based; details: 72 hrs
Method: Samples of 1×10^6 Hep G2 cells were plated on a 6 cm tissue culture dish, and the cells were allowed to recover 24 hrs before any treatment. Thereafter, DMSO or a test compound (1 μM, 10 μM or 50 μM) was added to the cells for 1 hr in complete medium at 37° C., washed twice with PBS, and incubated in fresh media for the incubation time. Cell were harvested with trypsin and washed twice with PBS. Samples were fixed in 70% ethanol and stored at 4° C. for at least 24 hrs and then washed once with Mcllvaine's buffer (0.2M Na2HPO4, 0.1M citric acid, pH=7.5) and once again with PBS. Samples were stained with PI (propidium iodide) staining solution (PBS containing 100 μg/ml, RNase A and 10 μg/ml PI [Sigma]), processed on a Coulter Elite flow cytometry, and the data analyzed with the Mutiplus AV program.
To obtain more information about the effect(s) of the acyclic enediynes according to this invention upon the growth of cells, human hepatoma Hep G2 cells or K-562 cells were used, and the growth characteristic of said cells were measured subsequent to the treatment with a test compound.
1 μM or 10 μM of compound 5 was added to the cells, and after exposure to the compounds for 72 hrs, attached cells were analyzed by flow cytometry. The majority (71.5%) of control cells exposed to DMSO were in the G0-G1 phase of cell cycle, and only a small amount of cells was detected in either the S phase (22.7%) or G2/M (5.8%) phase. Moreover, after a 72 hrs treatment with compound 5 (1 and 10 μM), cells progressed to the S phase and the majority of cell population was almost arrested at the S phase. Consistent with this cell cycle arrest, only 36.6% (1 μM) and 46.9% (10 μM) of the cells were found at the G0-G1 phase, 63.2% (1 μM) and 53.0% (10 μM) in S phase, and 0.2% (1 μM) and 0.1% (10 μM) in G2/M phase. However, the significant blockage of the Hep G2 cell cycle in S phase was observed and was induced by both concentrations (1 μM and 10 μM) of compound 5.

topoisomerase I = target: T1, topoisomerase I (Homo sapiens, UniProt P11387); assay: Topoisomerase I course assay, cleavage of supercoiled pGEM9zf(−) DNA, gel electrophoresis; type: biochemical; details: 87 μM compound
T1 sequence (P11387 1-765): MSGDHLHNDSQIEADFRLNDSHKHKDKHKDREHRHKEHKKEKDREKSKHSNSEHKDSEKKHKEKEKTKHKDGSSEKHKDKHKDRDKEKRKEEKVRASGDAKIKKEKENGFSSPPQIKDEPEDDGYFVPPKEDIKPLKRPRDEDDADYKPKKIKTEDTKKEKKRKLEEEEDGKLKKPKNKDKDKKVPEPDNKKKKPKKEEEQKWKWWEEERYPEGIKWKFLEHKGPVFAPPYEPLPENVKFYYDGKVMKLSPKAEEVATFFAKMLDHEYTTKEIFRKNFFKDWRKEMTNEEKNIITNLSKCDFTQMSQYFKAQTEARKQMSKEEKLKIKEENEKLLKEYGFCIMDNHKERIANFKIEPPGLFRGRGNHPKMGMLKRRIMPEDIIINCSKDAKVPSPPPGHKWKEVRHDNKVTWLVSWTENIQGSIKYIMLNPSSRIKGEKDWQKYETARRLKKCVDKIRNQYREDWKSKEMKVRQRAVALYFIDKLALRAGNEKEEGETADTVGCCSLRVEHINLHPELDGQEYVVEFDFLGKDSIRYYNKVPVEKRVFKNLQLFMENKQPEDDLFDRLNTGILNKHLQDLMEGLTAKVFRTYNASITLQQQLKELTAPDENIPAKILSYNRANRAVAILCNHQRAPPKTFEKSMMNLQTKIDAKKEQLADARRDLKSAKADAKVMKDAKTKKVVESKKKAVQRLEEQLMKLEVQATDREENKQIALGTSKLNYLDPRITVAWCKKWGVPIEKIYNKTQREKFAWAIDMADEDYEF

[6] = tested on: Hela: human cervix epitheloid carcinoma
Hepa: human hepatoma [7] = tested on: Hepa: human hepatoma
[8] = tested on: KB: human oral epidermoid carcinoma; assay: In vitro anticancer assay (cytotoxicity), human solid tumor cells
Breast cancer cell MCF-7 = assay: Preliminary cytotoxicity test; type: cell-based, human
CNS cancer cell SF-268 = assay: Preliminary cytotoxicity test; type: cell-based, human
[9] = tested on: Non-small cell Lung cancer cell NCI-H460; assay: Preliminary cytotoxicity test; type: cell-based, human

| Compound | IC50 (Hep2,2,15) [µM] | IC50 (KB) [nM] | IC50 Values of Cytotoxicities, NCI [3] | IC50 Values of Cytotoxicities, DLD [4] | IC50 [1] [µg/mL] | IC50 (Hepa: human hepatoma [2]) [µg/mL] | IC50 [3] [µg/mL] | IC50 [4] [µg/mL] | further results |
| --- | --- | --- | --- | --- | --- | --- | --- | --- | --- |
| N#Cc1ccccc1C#C/C=C\C#CCOC1CCCCO1 (stereo not shown) [Compound 1, 2-(7-(Tetrahydropyranyloxy)-3(Z)-hepten-1,5-diynyl)-benzonitrile] | > 10 | 100 | —* (“—” means IC50 >20 μg/ml) | 8.61 µg/mL |  |  |  |  | IC50 Values of Cytotoxicities, Hela [1]: 9.97 µg/mL; IC50 Values of Cytotoxicities, Hepa (Hepa: human hepatoma [2]): 14.26 µg/mL |
| CCCCCC#C/C=C\C#Cc1ccccc1C#N [Compound 4, 2-(3(Z)-Undecen-1,5-diynyl)benzonitrile] | > 10 | < 10 |  |  | 6.38 (≈ 25.8 µM) | 7.28 (≈ 29.4 µM) | > 20 | > 20 |  |
| N#Cc1ccccc1C#C/C=C\C#Cc1ccccc1 [Compound 5, 2-(6-phenyl-3(Z)-hexen-1,5-diynyl)benzonitrile] |  |  |  |  | > 20 | 1.09 (≈ 4.3 µM) | 7.01 (≈ 27.7 µM) | > 20 | cells at the G0-G1 phase ([5]; 1 μM): 36.6%; cells in G2/M phase ([5]; 1 μM): 0.2%; cells in S phase ([5]; 1 μM): 63.2%; cells at the G0-G1 phase ([5]; 10 μM): 46.9%; cells in G2/M phase ([5]; 10 μM): 0.1%; cells in S phase ([5]; 10 μM): 53.0% |
| CCCCCCC#C/C=C\C#Cc1ccc(C(C)=O)cc1 [Compound 23, 4-(3-(Z)-Dodecen-1,5-diynyl)acetophenone] |  |  | 13.13 µg/mL | — (“—” means IC50 >20 μg/ml) |  |  |  |  | inhibition of topo I (topoisomerase I): displayed inhibitory activities of topo I; IC50 Values of Cytotoxicities, Hela [6]: — (key: “—” means IC50 >20 μg/ml); IC50 Values of Cytotoxicities, Hepa (Hepa: human hepatoma [7]): — (key: “—” means IC50 >20 μg/ml) |
| CCCCC#C/C=C\C#Cc1ccc(Cl)cc1 [Compound 13] |  |  | 8.00 µg/mL |  |  |  |  |  | IC50 Values of Cytotoxicities, Hela [6]: 9.83 µg/mL; IC50 Values of Cytotoxicities, KB [8]: — (“—” means IC50 >20 μg/ml); IC50 Values of Cytotoxicities, Hepa (Hepa: human hepatoma [7]): — (key: “—” means IC50 >20 μg/ml) |
| CCCCC#C/C=C\C#Cc1ccccc1C#N [Compound 3, 2-(3(Z)-Decen-1,5-diynyl)benzonitrile] | 17 | < 10 |  |  | > 20 | 12.5 (≈ 53.5 µM) | > 20 | 5.03 (≈ 21.6 µM) |  |
| N#Cc1ccccc1C#C/C=C\C#CCCCOC1CCCCO1 (stereo not shown) [Compound 2, 2-(9-(Tetrahydropyranyloxy)-3(Z)-nonen-1,5-diynyl)-benzonitrile] | > 10 | < 10 | — (“—” means IC50 >20 μg/ml) | — (“—” means IC50 >20 μg/ml) |  |  |  |  | IC50 Values of Cytotoxicities, Hela [1]: 10.62 µg/mL; IC50 Values of Cytotoxicities, Hepa (Hepa: human hepatoma [2]): 14.66 µg/mL |
| N#Cc1ccccc1C#CC=CC#Cc1ccc(N)cc1 [Compound 33, 2-[6-(p-anilinyl)-3-hexen-1,5-diynyl]benzonitrile] |  |  |  |  |  |  |  |  | Growth percentage, Breast cancer cell MCF-7 (Breast cancer cell MCF-7): 100%; Growth percentage, CNS cancer cell SF-268 (CNS cancer cell SF-268): 92%; Growth percentage, Non-small cell Lung cancer cell NCI-H460 [9]: 94% |
